Laboratory results as given in PubChem BioAssay (NCI).
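Exposure lasted 48 hours, with cells grown in 96-well plates and compounds tested at five concentrations. TGI: total growth inhibition.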

Key:
Assay in all cases: DTP human tumour cell line panel, 48 h
HL-60(TB) leukemia = test system: HL-60(TB) leukemia
SK-MEL-5 melanoma = test system: SK-MEL-5 melanoma
RXF 393 renal = test system: RXF 393 renal
RPMI-8226 leukemia = test system: RPMI-8226 leukemia
SF-268 CNS = test system: SF-268 CNS
HT29 colon = test system: HT29 colon
SNB-75 CNS = test system: SNB-75 CNS
EKVX NSCLC = test system: EKVX NSCLC
SK-MEL-2 melanoma = test system: SK-MEL-2 melanoma
SR leukemia = test system: SR leukemia

Measured: TGI

Cc1cc(C)cc(NC(N)=S)c1
98.1 µM: RXF 393 renal
> 100 µM: all other assays above
